Test results taken from ChEMBL document CHEMBL1201862, “PubChem BioAssay data set” (2004).
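Values below derive from 48-hour exposures of cells grown in 96-well plates, with endpoints linearly interpolated between the two concentrations bracketing the appropriate inhibition level. Here, GI50 denotes the concentration required for 50% inhibition of growth.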 Active and inactive are the calls of the source. Cut-off read from the data, not from the text of the source: active = GI50 up to about 1.1 µM and inactive = higher.

Legend:
Assay in all cases: NCI-60 cell line screen, 48 h
HCC 2998 = system: HCC 2998
KM12 = system: KM12
SNB-75 = system: SNB-75
OVCAR-8 = system: OVCAR-8
IGROV-1 = system: IGROV-1
A549 = system: A549
CAKI-1 = system: CAKI-1
SK-MEL-5 = system: SK-MEL-5
SR = system: SR
SK-MEL-28 = system: SK-MEL-28
HT-29 = system: HT-29
SK-MEL-2 = system: SK-MEL-2
ACHN = system: ACHN
RXF 393 = system: RXF 393
SF-268 = system: SF-268
HL-60 = system: HL-60
HOP-92 = system: HOP-92
NCI/ADR-RES = system: NCI/ADR-RES

CC[C@H]1CNC(=O)CC1CC(=O)OC (stereo partly specified)
GI50 (HCC 2998): > 100 µM (inactive)
GI50 (KM12): > 100 µM (inactive)
GI50 (SNB-75): > 100 µM (inactive)
GI50 (OVCAR-8): > 100 µM (inactive)
GI50 (IGROV-1): > 100 µM (inactive)
GI50 (A549): > 100 µM (inactive)
GI50 (CAKI-1): > 100 µM (inactive)
GI50 (SK-MEL-5): > 100 µM (inactive)
GI50 (SR): > 100 µM (inactive)
GI50 (SK-MEL-28): > 100 µM (inactive)
GI50 (HT-29): > 100 µM (inactive)
GI50 (SK-MEL-2): > 100 µM (inactive)
GI50 (ACHN): > 100 µM (inactive)
GI50 (RXF 393): > 100 µM (inactive)
GI50 (SF-268): > 100 µM (inactive)

Cc1ccc(S(=O)(=O)N2CCCCC2CCO)cc1 (stereo unspecified)
GI50 (HCC 2998): > 100 µM (inactive)
GI50 (KM12): > 100 µM (inactive)
GI50 (SNB-75): > 100 µM (inactive)
GI50 (OVCAR-8): > 100 µM (inactive)
GI50 (IGROV-1): > 100 µM (inactive)
GI50 (HL-60): > 100 µM (inactive)
GI50 (A549): > 100 µM (inactive)
GI50 (CAKI-1): > 100 µM (inactive)
GI50 (SK-MEL-5): > 100 µM (inactive)
GI50 (SR): > 100 µM (inactive)
GI50 (HT-29): > 100 µM (inactive)
GI50 (SK-MEL-2): > 100 µM (inactive)
GI50 (ACHN): > 100 µM (inactive)
GI50 (RXF 393): > 100 µM (inactive)
GI50 (HOP-92): > 100 µM (inactive)
GI50 (SF-268): > 100 µM (inactive)

NCCCSCC(=O)O
GI50 (HCC 2998): > 100 µM (inactive)
GI50 (KM12): > 100 µM (inactive)
GI50 (SNB-75): > 100 µM (inactive)
GI50 (OVCAR-8): > 100 µM (inactive)
GI50 (IGROV-1): > 100 µM (inactive)
GI50 (A549): > 100 µM (inactive)
GI50 (CAKI-1): > 100 µM (inactive)
GI50 (SK-MEL-5): > 100 µM (inactive)
GI50 (SK-MEL-28): > 100 µM (inactive)
GI50 (HT-29): > 100 µM (inactive)
GI50 (SK-MEL-2): > 100 µM (inactive)
GI50 (ACHN): > 100 µM (inactive)
GI50 (RXF 393): > 100 µM (inactive)
GI50 (HOP-92): > 100 µM (inactive)
GI50 (SF-268): > 100 µM (inactive)

O=S1(=O)COc2ccccc2-c2ncncc21
GI50 (HCC 2998): > 100 µM (inactive)
GI50 (KM12): > 100 µM (inactive)
GI50 (SNB-75): > 100 µM (inactive)
GI50 (OVCAR-8): > 100 µM (inactive)
GI50 (IGROV-1): > 100 µM (inactive)
GI50 (HL-60): > 100 µM (inactive)
GI50 (A549): > 100 µM (inactive)
GI50 (CAKI-1): > 100 µM (inactive)
GI50 (SK-MEL-5): > 100 µM (inactive)
GI50 (SR): > 100 µM (inactive)
GI50 (SK-MEL-28): > 100 µM (inactive)
GI50 (HT-29): > 100 µM (inactive)
GI50 (ACHN): > 100 µM (inactive)
GI50 (RXF 393): 1.02 µM (active)
GI50 (HOP-92): > 100 µM (inactive)
GI50 (SF-268): > 100 µM (inactive)

CCOC(=O)CCC(NC(=O)c1ccc(CNc2nc3ccccc3nc2C(=O)OCC)cc1)C(=O)OCC (stereo unspecified)
GI50 (KM12): > 100 µM (inactive)
GI50 (SNB-75): > 100 µM (inactive)
GI50 (OVCAR-8): > 100 µM (inactive)
GI50 (IGROV-1): 43.7 µM (inactive)
GI50 (A549): > 100 µM (inactive)
GI50 (SK-MEL-5): > 100 µM (inactive)
GI50 (NCI/ADR-RES): > 100 µM (inactive)
GI50 (SK-MEL-28): > 100 µM (inactive)
GI50 (HT-29): > 100 µM (inactive)
GI50 (SK-MEL-2): > 100 µM (inactive)
GI50 (ACHN): > 100 µM (inactive)
GI50 (HOP-92): > 100 µM (inactive)
GI50 (SF-268): > 100 µM (inactive)

Oc1nnc(CNc2ccc(Cl)cc2Cl)c2ccccc12
GI50 (HCC 2998): 20 µM (inactive)
GI50 (KM12): 39.3 µM (inactive)
GI50 (SNB-75): 23.6 µM (inactive)
GI50 (IGROV-1): 25.5 µM (inactive)
GI50 (HL-60): 22.5 µM (inactive)
GI50 (A549): 17.7 µM (inactive)
GI50 (CAKI-1): 24.1 µM (inactive)
GI50 (SK-MEL-5): 19.7 µM (inactive)
GI50 (SR): 32.7 µM (inactive)
GI50 (SK-MEL-28): 22.3 µM (inactive)
GI50 (HT-29): 31.8 µM (inactive)
GI50 (SK-MEL-2): 82.8 µM (inactive)
GI50 (ACHN): 22.8 µM (inactive)
GI50 (RXF 393): 13.9 µM (inactive)
GI50 (HOP-92): 32.7 µM (inactive)
GI50 (SF-268): 19.9 µM (inactive)

CN(C)/C=N\c1ccn(CCO)c(=O)n1
GI50 (HCC 2998): > 100 µM (inactive)
GI50 (KM12): > 100 µM (inactive)
GI50 (SNB-75): > 100 µM (inactive)
GI50 (OVCAR-8): > 100 µM (inactive)
GI50 (IGROV-1): > 100 µM (inactive)
GI50 (HL-60): > 100 µM (inactive)
GI50 (A549): > 100 µM (inactive)
GI50 (SK-MEL-5): > 100 µM (inactive)
GI50 (SR): > 100 µM (inactive)
GI50 (SK-MEL-28): > 100 µM (inactive)
GI50 (HT-29): > 100 µM (inactive)
GI50 (SK-MEL-2): > 100 µM (inactive)
GI50 (ACHN): > 100 µM (inactive)
GI50 (RXF 393): > 100 µM (inactive)
GI50 (SF-268): > 100 µM (inactive)
